Reference: US12252524B2, “GIP/GLP1 co-agonist compounds” (Eli Lilly and Company, priority 2018, dated 2025)
Numbered stars: 1 amine (or outer) side, 2 acyl side, 3 side chain; on linkers, the order of the positions; unused ones are H or OH. Square brackets hold non-standard residues; d marks the D form. Side chains are listed from the residue outwards. Peptide text beside a SMILES is read from it. * marks the point of attachment. C20 diacid = O=C(O)CCCCCCCCCCCCCCCCCCC(=O)*; C18 diacid = O=C(O)CCCCCCCCCCCCCCCCC(=O)*; αMePhe(2-F) = C[C@](N)(Cc1ccccc1F)C(=O)O; γGlu = O=C(O)[C@H](CCC(=O)[*:2])N[*:1]; Desaminotyrosyl = O=C(CCc1ccc(O)cc1)*; αMeY = C[C@](N)(Cc1ccc(O)cc1)C(=O)O; αMeF = C[C@](N)(Cc1ccccc1)C(=O)O; αMeL = CC(C)C[C@](C)(N)C(=O)O; αMeP = C[C@@]1(C(=O)O)CCCN1; Orn = NCCC[C@H](N)C(=O)O; AEEA = NCCOCCOCC(=O)O; Aib = CC(C)(N)C(=O)O

Columns and labels:
[1] = biological target: human GLP-1 receptor (GLP-1R) (Homo sapiens, UniProt P43220); assay: cAMP pharmacological functional assay in presence of casein, hGLP-1R; assay type: cell-based; conditions: HEK293 cells expressing hGLP-1R, 0.1% Casein, geometric mean; read-out: hGLP1R cAMP Rel EC50 nM (SEM, n)
human GLP-1 receptor (GLP-1R), sequence (P43220 24-463): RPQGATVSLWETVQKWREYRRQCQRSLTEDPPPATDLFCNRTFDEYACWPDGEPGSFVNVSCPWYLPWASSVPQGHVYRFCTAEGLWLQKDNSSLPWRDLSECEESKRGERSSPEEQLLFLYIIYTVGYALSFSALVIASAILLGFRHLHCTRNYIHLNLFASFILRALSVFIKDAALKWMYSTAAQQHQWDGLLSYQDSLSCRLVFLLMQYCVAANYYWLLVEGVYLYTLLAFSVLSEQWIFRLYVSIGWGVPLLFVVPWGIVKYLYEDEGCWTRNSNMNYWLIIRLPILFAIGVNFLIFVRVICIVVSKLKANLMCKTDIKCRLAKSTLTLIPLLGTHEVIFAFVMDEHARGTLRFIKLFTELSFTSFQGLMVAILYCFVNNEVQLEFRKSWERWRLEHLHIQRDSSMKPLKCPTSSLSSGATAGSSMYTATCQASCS

[2] = biological target: T1, gastric inhibitory peptide receptor (GIPR) (Homo sapiens, UniProt P48546); assay: cAMP pharmacological functional assay in presence of casein, hGIPR; assay type: cell-based; conditions: HEK293 cells expressing hGIPR, 0.1% Casein, geometric mean; read-out: hGIPR cAMP Rel EC50 nM (SEM, n)
T1 sequence (P48546 22-466): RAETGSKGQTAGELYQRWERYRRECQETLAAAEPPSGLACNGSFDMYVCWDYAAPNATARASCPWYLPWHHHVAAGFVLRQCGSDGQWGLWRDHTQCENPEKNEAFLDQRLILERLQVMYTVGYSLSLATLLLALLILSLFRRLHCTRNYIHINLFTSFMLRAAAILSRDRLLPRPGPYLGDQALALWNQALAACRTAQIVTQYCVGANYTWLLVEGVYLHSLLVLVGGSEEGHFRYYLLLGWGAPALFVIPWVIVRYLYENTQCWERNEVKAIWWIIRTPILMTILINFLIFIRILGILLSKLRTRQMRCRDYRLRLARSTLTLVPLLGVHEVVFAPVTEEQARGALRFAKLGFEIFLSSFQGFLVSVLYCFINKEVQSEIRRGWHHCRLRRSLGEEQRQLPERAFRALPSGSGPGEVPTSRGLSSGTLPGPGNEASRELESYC

Row | SMILES | EC50 [1] [nM] | EC50 [2] [nM]
1 | CC[C@H](C)[C@H](NC(=O)[C@H](CC(C)C)NC(=O)[C@](C)(Cc1ccc(O)cc1)NC(=O)[C@@H](CCC(=O)O)NC(=O)[C@@H](NC(=O)[C@H](Cc1ccccc1)NC(=O)[C@@H](NC(=O)C(C)(C)NC(=O)[C@H](CCC(N)=O)NC(=O)[C@H](C)NC(=O)[C@H](CCCCNC(=O)COCCOCCNC(=O)COCCOCCNC(=O)CC[C@H](NC(=O)CCCCCCCCCCCCCCCCC(=O)O)C(=O)O)NC(=O)[C@H](CCCN)NC(=O)[C@H](CC(=O)O)NC(=O)[C@H](CC(C)C)NC(=O)[C@](C)(CC(C)C)NC(=O)[C@@H](NC(=O)[C@H](CO)NC(=O)[C@H](C)NC(=O)[C@H](CC(=O)O)NC(=O)[C@H](CO)NC(=O)[C@@H](NC(=O)[C@](C)(Cc1ccccc1F)NC(=O)[C@@H](NC(=O)CNC(=O)[C@H](CCC(=O)O)NC(=O)C(C)(C)NC(=O)[C@@H](N)Cc1ccc(O)cc1)[C@@H](C)O)[C@@H](C)O)[C@@H](C)CC)[C@@H](C)O)[C@@H](C)CC)C(=O)N[C@@H](CCC(=O)O)C(=O)NCC(=O)NCC(=O)N1CCC[C@H]1C(=O)N[C@@H](CO)C(=O)N[C@@H](CO)C(=O)NCC(=O)N[C@@H](C)C(=O)N1CCC[C@H]1C(=O)N1CCC[C@H]1C(=O)N1CCC[C@H]1C(=O)N[C@@H](CO)C(N)=O [Example 245] (H-Y[Aib]EGT[αMePhe(2-F)]TSDASI[αMeL]LD[Orn]K([AEEA-AEEA-γGlu-C18 diacid])AQ[Aib]TFI[dE][αMeY]LIEGGPSSGAPPPS-NH2) | 0.0222 | 0.0552
2 | CC[C@H](C)[C@H](NC(=O)[C@H](CCCCN)NC(=O)[C@H](CC(=O)O)NC(=O)[C@H](CC(C)C)NC(=O)[C@H](CC(C)C)NC(=O)[C@@H](NC(=O)[C@H](CO)NC(=O)[C@H](Cc1ccc(O)cc1)NC(=O)[C@H](CC(=O)O)NC(=O)[C@H](CO)NC(=O)[C@@H](NC(=O)[C@](C)(Cc1ccccc1)NC(=O)[C@@H](NC(=O)CNC(=O)[C@H](CCC(=O)O)NC(=O)C(C)(C)NC(=O)[C@@H](N)Cc1ccc(O)cc1)[C@@H](C)O)[C@@H](C)O)[C@@H](C)CC)C(=O)N[C@@H](C)C(=O)N[C@@H](CCC(N)=O)C(=O)NC(C)(C)C(=O)N[C@@H](CCCCNC(=O)COCCOCCNC(=O)COCCOCCNC(=O)CC[C@H](NC(=O)CCCCCCCCCCCCCCCCCCC(=O)O)C(=O)O)C(=O)N[C@@H](Cc1ccccc1)C(=O)N[C@H](C(=O)N[C@@H](CCC(=O)O)C(=O)N[C@@H](Cc1ccc(O)cc1)C(=O)N[C@@H](CC(C)C)C(=O)N[C@H](C(=O)N[C@@H](CCC(=O)O)C(=O)NCC(=O)NCC(N)=O)[C@@H](C)CC)[C@@H](C)CC [Example 94] (H-Y[Aib]EGT[αMeF]TSDYSILLDKIAQ[Aib]K([AEEA-AEEA-γGlu-C20 diacid])FIEYLIEGG-NH2) | 0.338 | 0.425
3 | CC[C@H](C)[C@H](NC(=O)[C@H](CC(C)C)NC(=O)[C@H](Cc1ccc(O)cc1)NC(=O)[C@@H](CCC(=O)O)NC(=O)[C@@H](NC(=O)[C@H](Cc1ccccc1)NC(=O)[C@@H](NC(=O)C(C)(C)NC(=O)[C@H](CCC(N)=O)NC(=O)[C@H](C)NC(=O)[C@H](CCCCNC(=O)COCCOCCNC(=O)COCCOCCNC(=O)CC[C@H](NC(=O)CCCCCCCCCCCCCCCCCCC(=O)O)C(=O)O)NC(=O)[C@H](CCC(=O)O)NC(=O)[C@H](CC(=O)O)NC(=O)[C@H](CC(C)C)NC(=O)[C@](C)(CC(C)C)NC(=O)[C@@H](NC(=O)[C@H](CO)NC(=O)[C@H](Cc1c[nH]cn1)NC(=O)[C@H](CC(=O)O)NC(=O)[C@H](CO)NC(=O)[C@@H](NC(=O)[C@](C)(Cc1ccccc1F)NC(=O)[C@@H](NC(=O)CNC(=O)[C@H](CCC(=O)O)NC(=O)C(C)(C)NC(=O)[C@@H](N)Cc1ccc(O)cc1)[C@@H](C)O)[C@@H](C)O)[C@@H](C)CC)[C@@H](C)O)[C@@H](C)CC)C(=O)N[C@H](CCC(=O)O)C(=O)NCC(=O)NCC(=O)N1CCC[C@H]1C(=O)N[C@@H](CO)C(=O)N[C@@H](CO)C(=O)NCC(=O)N[C@@H](C)C(=O)N1CCC[C@H]1C(=O)N1CCC[C@H]1C(=O)N1CCC[C@H]1C(=O)N[C@@H](CO)C(N)=O [Example 164] (H-Y[Aib]EGT[αMePhe(2-F)]TSDHSI[αMeL]LDEK([AEEA-AEEA-γGlu-C20 diacid])AQ[Aib]TFI[dE]YLI[dE]GGPSSGAPPPS-NH2) | 15.6 | 3.09
4 | CC[C@H](C)[C@H](NC(=O)[C@H](CC(C)C)NC(=O)[C@H](Cc1ccc(O)cc1)NC(=O)[C@H](CCC(=O)O)NC(=O)[C@@H](NC(=O)[C@H](Cc1ccccc1)NC(=O)[C@H](C)NC(=O)[C@H](CCCCN)NC(=O)[C@H](CCC(N)=O)NC(=O)[C@H](C)NC(=O)[C@H](CCCCNC(=O)COCCOCCNC(=O)COCCOCCNC(=O)CC[C@H](NC(=O)CCCCCCCCCCCCCCCCCCC(=O)O)C(=O)O)NC(=O)[C@H](CCCCN)NC(=O)[C@H](CC(=O)O)NC(=O)[C@H](CC(C)C)NC(=O)[C@H](CC(C)C)NC(=O)[C@@H](NC(=O)[C@H](CO)NC(=O)[C@H](Cc1ccc(O)cc1)NC(=O)[C@H](CC(=O)O)NC(=O)[C@H](CO)NC(=O)[C@@H](NC(=O)[C@H](Cc1ccccc1)NC(=O)[C@@H](NC(=O)CNC(=O)[C@H](CCC(=O)O)NC(=O)C(C)(C)NC(=O)[C@@H](N)Cc1ccc(O)cc1)[C@@H](C)O)[C@@H](C)O)[C@@H](C)CC)[C@@H](C)CC)C(=O)N[C@@H](CCC(=O)O)C(=O)NCC(=O)NCC(=O)N1CCC[C@H]1C(=O)N[C@@H](CO)C(=O)N[C@@H](CO)C(=O)NCC(=O)N[C@@H](C)C(=O)N1CCC[C@H]1C(=O)N1CCC[C@H]1C(=O)N1CCC[C@H]1C(=O)N[C@@H](CO)C(N)=O [Example 256] | 0.0506 | 0.643
5 | CC[C@H](C)[C@H](NC(=O)[C@H](CC(C)C)NC(=O)[C@H](Cc1ccc(O)cc1)NC(=O)[C@H](CCC(=O)O)NC(=O)[C@@H](NC(=O)[C@H](Cc1ccccc1)NC(=O)[C@H](C)NC(=O)[C@H](CCC(N)=O)NC(=O)[C@H](CCC(N)=O)NC(=O)[C@H](C)NC(=O)[C@H](CCCCNC(=O)COCCOCCNC(=O)COCCOCCNC(=O)CC[C@H](NC(=O)CCCCCCCCCCCCCCCCCCC(=O)O)C(=O)O)NC(=O)[C@H](CCC(=O)O)NC(=O)[C@H](CC(=O)O)NC(=O)[C@H](CC(C)C)NC(=O)[C@H](CC(C)C)NC(=O)[C@@H](NC(=O)[C@H](CO)NC(=O)[C@H](Cc1ccc(O)cc1)NC(=O)[C@H](CC(=O)O)NC(=O)[C@H](CO)NC(=O)[C@@H](NC(=O)[C@H](Cc1ccccc1)NC(=O)[C@@H](NC(=O)CNC(=O)[C@H](CCC(=O)O)NC(=O)[C@]1(C)CCCN1C(=O)[C@@H](N)Cc1ccc(O)cc1)[C@@H](C)O)[C@@H](C)O)[C@@H](C)CC)[C@@H](C)CC)C(=O)N[C@@H](CCC(=O)O)C(=O)NCC(=O)NCC(=O)N1CCC[C@H]1C(=O)N[C@@H](CO)C(=O)N[C@@H](CO)C(=O)NCC(=O)N[C@@H](C)C(=O)N1CCC[C@H]1C(=O)N1CCC[C@H]1C(=O)N1CCC[C@H]1C(=O)N[C@@H](CO)C(N)=O [Example 193] (H-Y[αMeP]EGTFTSDYSILLDEK([AEEA-AEEA-γGlu-C20 diacid])AQQAFIEYLIEGGPSSGAPPPS-NH2) | 0.162 | 0.336
6 | CC[C@H](C)[C@H](NC(=O)[C@H](CC(C)C)NC(=O)[C@H](Cc1ccc(O)cc1)NC(=O)[C@H](CCC(=O)O)NC(=O)[C@@H](NC(=O)[C@H](Cc1ccccc1)NC(=O)[C@H](C)NC(=O)[C@@H]1CCCN1C(=O)[C@H](CCC(N)=O)NC(=O)[C@H](C)NC(=O)[C@H](CCCCNC(=O)COCCOCCNC(=O)COCCOCCNC(=O)CC[C@H](NC(=O)CCCCCCCCCCCCCCCCC(=O)O)C(=O)O)NC(=O)[C@H](CCCCN)NC(=O)[C@H](CC(=O)O)NC(=O)[C@H](CC(C)C)NC(=O)[C@H](CC(C)C)NC(=O)[C@@H](NC(=O)[C@H](CO)NC(=O)[C@H](Cc1ccc(O)cc1)NC(=O)[C@H](CC(=O)O)NC(=O)[C@H](CO)NC(=O)[C@@H](NC(=O)[C@H](Cc1ccccc1)NC(=O)[C@@H](NC(=O)CNC(=O)[C@H](CCC(=O)O)NC(=O)C(C)(C)NC(=O)[C@@H](N)Cc1ccc(O)cc1)[C@@H](C)O)[C@@H](C)O)[C@@H](C)CC)[C@@H](C)CC)C(=O)N[C@@H](CCC(=O)O)C(=O)NCC(=O)NCC(N)=O [Example 275] (H-Y[Aib]EGTFTSDYSILLDKK([AEEA-AEEA-γGlu-C18 diacid])AQPAFIEYLIEGG-NH2) | 14 | > 30
7 | CC[C@H](C)[C@H](NC(=O)[C@H](CC(C)C)NC(=O)[C@H](Cc1ccc(O)cc1)NC(=O)[C@H](CCC(=O)O)NC(=O)[C@@H](NC(=O)[C@H](Cc1ccccc1)NC(=O)[C@H](C)NC(=O)[C@H](CCC(N)=O)NC(=O)[C@H](CCC(N)=O)NC(=O)[C@H](C)NC(=O)[C@H](CCCCNC(=O)COCCOCCNC(=O)COCCOCCNC(=O)CC[C@H](NC(=O)CCCCCCCCCCCCCCCCCCC(=O)O)C(=O)O)NC(=O)[C@H](CCC(=O)O)NC(=O)[C@H](CC(=O)O)NC(=O)[C@H](CC(C)C)NC(=O)[C@H](CC(C)C)NC(=O)[C@@H](NC(=O)[C@H](CO)NC(=O)[C@H](Cc1ccc(O)cc1)NC(=O)[C@H](CC(=O)O)NC(=O)[C@H](CO)NC(=O)[C@@H](NC(=O)[C@H](Cc1ccccc1)NC(=O)[C@@H](NC(=O)CNC(=O)[C@H](CCC(=O)O)NC(=O)C(C)(C)NC(=O)CCc1ccc(O)cc1)[C@@H](C)O)[C@@H](C)O)[C@@H](C)CC)[C@@H](C)CC)C(=O)N[C@@H](CCC(=O)O)C(=O)NCC(=O)NCC(=O)N1CCC[C@H]1C(=O)N[C@@H](CO)C(=O)N[C@@H](CO)C(=O)NCC(=O)N[C@@H](C)C(=O)N1CCC[C@H]1C(=O)N1CCC[C@H]1C(=O)N1CCC[C@H]1C(=O)N[C@@H](CO)C(N)=O [Example 199] (Desaminotyrosyl-[Aib]EGTFTSDYSILLDEK([AEEA-AEEA-γGlu-C20 diacid])AQQAFIEYLIEGGPSSGAPPPS-NH2) | 0.0422 | > 30
